Source: patent US8466088B2, “Herbicidal compositions containing benzoylpyrazole compounds” (Ishihara Sangyo Kaisha, Ltd., priority 2007, dated 2013)
Like-named read-outs stand apart in the source and are kept apart here.

Assays:
crabgrass = test: Example 1: pot test, foliar treatment, visually observed growth inhibition of crabgrass; assay type: in vivo
velvetleaf = test: Example 1: pot test, foliar treatment, visually observed growth inhibition of velvetleaf; assay type: in vivo, Abutilon theophrasti MEDIC.
various plants = test: Example 1: pot test, foliar treatment, visually observed growth inhibition of other sown plants (Tables 5-1 to 5-137); assay type: in vivo; conditions: for Growth inhibition rate (%) of ivyleaf morningglory, Measured value: ivyleaf morningglory 1.5 to 2.1 leaf stage
Source text: When the herbicidal activity in a case where two active ingredients are combined, is larger than the simple sum of the respective herbicidal activities of the two active ingredients (the expected activity), it is called a synergistic effect. The activity expected by the combination of two active ingredients can be calculated as follows (Colby S. R., “Weed”, vol. 15, p. 20-22, 1967). E=α+β−(α×β+100) where
α: growth inhibition rate when treated with x (g/ha) of herbicide X,
β: growth inhibition rate when treated with y (g/ha) of herbicide Y,
E: growth inhibition rate expected when treated with x (g/ha) of herbicide X and y (g/ha) of herbicide Y.
That is, when the actual growth inhibition rate (measured value) is larger than the growth inhibition rate by the above calculation (calculated value), the activity by the combination can be regarded as showing a synergistic effect.
Upland field soil was put into a 1/1,000,000 hectare pot, and seeds of various plants were sown. When the respective plants reached predetermined leaf stage, herbicidal compositions in predetermined amounts were diluted with water in an amount corresponding to 300 L/ha and applied for foliar treatment by a small sprayer.
On the 14th to 28th day after application, the state of growth of the respective plants was visually observed to determine the growth inhibition rate (measured value) in accordance with the following evaluation standard. Further, in accordance with the above Colby's formula, the growth inhibition rate (calculated value) was calculated. In Tables, with respect to the compound A, Compound Nos. in Table 1 or 3 are described, and with respect to other herbicidal compounds, common names are described.

[1] = 3.2 to 4.3 leaf stage, 21st day after application, 15 g/ha

For `COc1cc(OC)nc(NC(=O)NS(=O)(=O)c2ncccc2C(=O)N(C)C)n1` [Nicosulfuron], the inhibition at 30 g/ha (crabgrass; Digitaria sanguinalis, foliar, 3.5 to 4.2 leaf stage, 20th day after application, 30 g/ha, read-out: Growth inhibition rate (%) of crabgrass, Measured value) was 92%, the inhibition at 15 g/ha (crabgrass; Digitaria sanguinalis, foliar, 3.8 to 4.4 leaf stage, 21st day after application, 15 g/ha, read-out: Growth inhibition rate (%) of crabgrass, Measured value) was 45% and the inhibition at 15 g/ha (crabgrass; Digitaria sanguinalis, foliar, 3.8 to 5.2 leaf stage, 21st day after application, 15 g/ha, read-out: Growth inhibition rate (%) of crabgrass, Measured value) was 40%. For the same molecule, the inhibition at 15 g/ha (crabgrass; Digitaria sanguinalis, foliar, 4.3 to 4.5 leaf stage, 20th day after application, 15 g/ha, read-out: Growth inhibition rate (%) of crabgrass, Measured value) was 88%, the inhibition at 10 g/ha (velvetleaf; Abutilon theophrasti, foliar, 2.5 to 3.3 leaf stage, 21st day after application, 10 g/ha, read-out: Growth inhibition rate (%) of velvetleaf, Measured value) was 10% and the inhibition at 20 g/ha (velvetleaf; Abutilon theophrasti, foliar, 2.5 to 3.3 leaf stage, 21st day after application, 20 g/ha, read-out: Growth inhibition rate (%) of velvetleaf, Measured value) was 20%. For the same molecule, the inhibition at 30 g/ha (velvetleaf; Abutilon theophrasti, foliar, 2.5 to 3.3 leaf stage, 21st day after application, 30 g/ha, read-out: Growth inhibition rate (%) of velvetleaf, Measured value) was 20%, the inhibition at 80 g/ha (velvetleaf; Abutilon theophrasti, foliar, 2.8 to 3.6 leaf stage, 24th day after application, 80 g/ha, read-out: Growth inhibition rate (%) of velvetleaf, Measured value) was 60% and the inhibition at 15 g/ha (velvetleaf; Abutilon theophrasti, foliar, 3.0 to 3.5 leaf stage, 21st day after application, 15 g/ha, read-out: Growth inhibition rate (%) of velvetleaf, Measured value) was 45%. The inhibition at 15 g/ha (velvetleaf; Abutilon theophrasti, foliar, 3.0 to 3.8 leaf stage, 28th day after application, 15 g/ha, read-out: Growth inhibition rate (%) of velvetleaf, Measured value) was 10%, the inhibition at 50 g/ha (velvetleaf; Abutilon theophrasti, foliar, 3.3 to 4.3 leaf stage, 20th day after application, 50 g/ha, read-out: Growth inhibition rate (%) of velvetleaf, Measured value) was 50% and the inhibition at 7 g/ha (various plants; foliar, prickly sida 2.1 to 3.1 leaf stage, 20th day after application, 7 g/ha, read-out: Growth inhibition rate (%) of prickly sida, Measured value) was 0%. It also gave an inhibition at 20 g/ha (various plants; foliar, prickly sida 2.1 to 3.1 leaf stage, 20th day after application, 20 g/ha, read-out: Growth inhibition rate (%) of prickly sida, Measured value) of 0%, an inhibition at 30 g/ha (various plants; foliar, prickly sida 2.1 to 3.1 leaf stage, 20th day after application, 30 g/ha, read-out: Growth inhibition rate (%) of prickly sida, Measured value) of 10% and an inhibition at 60 g/ha (various plants; foliar, prickly sida 2.1 to 3.1 leaf stage, 20th day after application, 60 g/ha, read-out: Growth inhibition rate (%) of prickly sida, Measured value) of 55%.

`COCCOc1c(S(C)(=O)=O)ccc(C(=O)c2cnn(C)c2OC(=O)SC(C)(C)C)c1C` [No. 241] was tested, and the “Growth inhibition rate (%) of crabgrass, Measured value” (crabgrass; 3.1 to 4.0 leaf stage, 22nd day after application, 15 g/ha) was 90%, the “Growth inhibition rate (%) of crabgrass, Measured value” (crabgrass; 3.2 to 4.1 leaf stage, 14th day after application, 15 g/ha) was 94% and the “Growth inhibition rate (%) of crabgrass, Measured value” (crabgrass; 3.2 to 4.1 leaf stage, 21st day after application, 7 g/ha) was 80%. For the same molecule, the “Growth inhibition rate (%) of crabgrass, Measured value” (crabgrass; 3.2 to 4.1 leaf stage, 21st day after application, 15 g/ha) was 93%, the “Growth inhibition rate (%) of crabgrass, Measured value” (crabgrass; 3.2 to 4.3 leaf stage, 14th day after application, 15 g/ha) was 93% and the “Growth inhibition rate (%) of crabgrass, Measured value” (crabgrass; [1]) was 88%. For the same molecule, the “Growth inhibition rate (%) of crabgrass, Measured value” (crabgrass; 3.3 to 4.2 leaf stage, 24th day after application, 15 g/ha) was 75%, the “Growth inhibition rate (%) of crabgrass, Measured value” (crabgrass; 3.5 to 4.2 leaf stage, 14th day after application, 15 g/ha) was 90% and the “Growth inhibition rate (%) of crabgrass, Measured value” (crabgrass; 3.5 to 4.2 leaf stage, 20th day after application, 1.875 g/ha) was 30%. The “Growth inhibition rate (%) of crabgrass, Measured value” (crabgrass; 3.5 to 4.2 leaf stage, 20th day after application, 3.75 g/ha) was 68%, the “Growth inhibition rate (%) of crabgrass, Measured value” (crabgrass; 3.7 to 4.6 leaf stage, 21st day after application, 7 g/ha) was 80% and the “Growth inhibition rate (%) of crabgrass, Measured value” (crabgrass; 3.7 to 4.6 leaf stage, 21st day after application, 15 g/ha) was 94%. The “Growth inhibition rate (%) of crabgrass, Measured value” (crabgrass; 4.0 to 5.0 leaf stage, 21st day after application, 7 g/ha) was 60%, the “Growth inhibition rate (%) of crabgrass, Measured value” (crabgrass; 4.0 to 5.0 leaf stage, 21st day after application, 15 g/ha) was 80% and the “Growth inhibition rate (%) of velvetleaf, Measured value” (velvetleaf; 2.5 to 3.3 leaf stage, 21st day after application, 7 g/ha) was 65%. For the same molecule, the “Growth inhibition rate (%) of velvetleaf, Measured value” (velvetleaf; 2.5 to 3.3 leaf stage, 21st day after application, 15 g/ha) was 80%, the “Growth inhibition rate (%) of velvetleaf, Measured value” (velvetleaf; 2.6 to 3.3 leaf stage, 20th day after application, 7 g/ha) was 70% and the “Growth inhibition rate (%) of velvetleaf, Measured value” (velvetleaf; 2.8 to 3.6 leaf stage, 24th day after application, 3.75 g/ha) was 45%. For the same molecule, the “Growth inhibition rate (%) of velvetleaf, Measured value” (velvetleaf; 3.0 to 4.0 leaf stage, 21st day after application, 7 g/ha) was 60%, the “Growth inhibition rate (%) of velvetleaf, Measured value” (velvetleaf; 3.0 to 4.0 leaf stage, 21st day after application, 15 g/ha) was 80% and the “Growth inhibition rate (%) of velvetleaf, Measured value” (velvetleaf; [1]) was 85%. For the same molecule, the “Growth inhibition rate (%) of velvetleaf, Measured value” (velvetleaf; 3.3 to 4.3 leaf stage, 20th day after application, 3.75 g/ha) was 45%, the “Growth inhibition rate (%) of velvetleaf, Measured value” (velvetleaf; 3.3 to 4.3 leaf stage, 20th day after application, 15 g/ha) was 80% and the “Growth inhibition rate (%) of velvetleaf, Measured value” (velvetleaf; 4.0 to 4.4 leaf stage, 22nd day after application, 15 g/ha) was 97%. The “Growth inhibition rate (%) of ivyleaf morningglory, Measured value” (various plants; 14th day after application, 75 g/ha) was 88%, the “Growth inhibition rate (%) of ivyleaf morningglory, Measured value” (various plants; 23rd day after application, 100 g/ha) was 85% and the “Growth inhibition rate (%) of prickly sida, Measured value” (various plants; prickly sida 2.1 to 3.1 leaf stage, 20th day after application, 50 g/ha) was 60%. The “Growth inhibition rate (%) of prickly sida, Measured value” (various plants; prickly sida 2.1 to 3.1 leaf stage, 20th day after application, 100 g/ha) was 60%.
